pEC50, pIC50, pKi: −log10 of the molar value. The source made the active and inactive calls. No cut-off for these calls is given here.
Tests used:
Cannabinoid receptor 1 [1] = molecular target: T1, Cannabinoid receptor 1 (Homo sapiens, UniProt P21554); assay: Intrinsic activity at human recombinant CB1 receptor expressed in HEK293 cell membranes assessed as stimulation of [35S]GTPgammaS binding at 10 uM by liquid scintillation counting method relative to CP55,940; format: functional
[2] = molecular target: Cannabinoid receptor 1 (Rattus norvegicus) (UniProt P20272); assay: Intrinsic activity at CB1 receptor in rat brain cortical membranes assessed as stimulation of [35S]GTPgammaS binding at 10 uM by liquid scintillation counting method relative to CP55,940; format: functional, cell membranes
Cannabinoid receptor 1 (Rattus norvegicus), sequence (P20272 whole entry, the tested form may be a part): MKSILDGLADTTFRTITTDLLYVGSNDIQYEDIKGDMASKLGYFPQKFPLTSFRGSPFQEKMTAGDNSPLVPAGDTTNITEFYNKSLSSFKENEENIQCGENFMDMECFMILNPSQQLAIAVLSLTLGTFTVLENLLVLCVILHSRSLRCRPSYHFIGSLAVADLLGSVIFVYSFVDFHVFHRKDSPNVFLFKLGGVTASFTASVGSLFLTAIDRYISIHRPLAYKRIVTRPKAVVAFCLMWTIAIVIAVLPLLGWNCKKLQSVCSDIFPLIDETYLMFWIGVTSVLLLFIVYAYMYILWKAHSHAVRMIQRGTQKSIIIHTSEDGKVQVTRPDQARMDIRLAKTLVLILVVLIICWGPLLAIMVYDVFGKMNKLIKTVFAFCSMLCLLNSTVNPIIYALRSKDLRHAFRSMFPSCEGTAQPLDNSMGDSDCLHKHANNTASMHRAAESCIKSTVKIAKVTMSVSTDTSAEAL

[3] = molecular target: T2, G-protein coupled receptor 55 (Homo sapiens, UniProt Q9Y2T6); assay: Agonist activity at human GPR55 expressed in CHO cells assessed as induction of LPI-induced beta-arrestin recruitment by beta-galactosidase enzyme fragment complementation method relative to LPI; format: cell-based; parameters: concentration or dose not given beside the values
T2 sequence (Q9Y2T6 whole entry, the tested form may be a part): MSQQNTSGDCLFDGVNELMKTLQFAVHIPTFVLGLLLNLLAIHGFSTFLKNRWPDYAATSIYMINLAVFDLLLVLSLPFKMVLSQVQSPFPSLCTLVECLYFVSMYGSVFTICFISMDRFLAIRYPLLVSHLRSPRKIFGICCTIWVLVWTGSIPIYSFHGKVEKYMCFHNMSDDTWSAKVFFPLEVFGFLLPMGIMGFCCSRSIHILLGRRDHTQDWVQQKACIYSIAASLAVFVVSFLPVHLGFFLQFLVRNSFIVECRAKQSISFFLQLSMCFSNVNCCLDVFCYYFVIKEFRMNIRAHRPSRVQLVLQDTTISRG

[4] = molecular target: T3, N-arachidonyl glycine receptor (Homo sapiens) (UniProt Q14330); assay: Agonist activity at human GPR18 expressed in CHO cells assessed as induction of beta-arrestin recruitment by beta-galactosidase enzyme fragment complementation method relative to delta9-THC; format: cell-based; parameters: concentration or dose not given beside the values
T3 sequence (whole entry): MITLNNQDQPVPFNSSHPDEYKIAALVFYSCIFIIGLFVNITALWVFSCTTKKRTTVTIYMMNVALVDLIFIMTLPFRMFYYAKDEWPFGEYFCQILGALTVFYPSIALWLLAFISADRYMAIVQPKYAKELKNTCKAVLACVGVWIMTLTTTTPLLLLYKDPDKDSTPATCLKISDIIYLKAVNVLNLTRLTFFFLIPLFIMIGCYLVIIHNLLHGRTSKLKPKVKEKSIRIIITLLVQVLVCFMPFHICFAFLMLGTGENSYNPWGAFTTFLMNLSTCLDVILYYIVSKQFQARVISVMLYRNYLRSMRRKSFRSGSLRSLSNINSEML

[5] = Displacement of [3H]diazepam from GABAA receptor in rat brain cortical membranes; format: cell membranes
[6] = molecular target: T4, G-protein coupled receptor 35 (Homo sapiens, UniProt Q9HC97); assay: Antagonist activity at human GPR35 assessed as reduction of zaprinast-induced beta-arrestin recruitment by beta-galactosidase enzyme fragment complementation method relative to untreated control; parameters: concentration or dose not given beside the values; conditions: concentration not given here
T4 sequence (Q9HC97 whole entry, the tested form may be a part): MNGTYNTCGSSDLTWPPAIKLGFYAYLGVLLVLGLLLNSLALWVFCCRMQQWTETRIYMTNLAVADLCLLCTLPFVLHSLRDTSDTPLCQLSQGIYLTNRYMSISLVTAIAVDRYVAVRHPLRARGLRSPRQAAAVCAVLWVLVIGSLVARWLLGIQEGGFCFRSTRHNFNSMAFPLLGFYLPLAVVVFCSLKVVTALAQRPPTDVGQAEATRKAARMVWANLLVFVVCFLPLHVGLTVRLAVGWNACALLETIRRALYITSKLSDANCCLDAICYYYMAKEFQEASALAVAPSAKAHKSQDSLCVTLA

[7] = molecular target: T4, G-protein coupled receptor 35; assay: Antagonist activity at human GPR35 assessed as reduction of zaprinast-induced beta-arrestin recruitment by beta-galactosidase enzyme fragment complementation method
[8] = molecular target: T4, G-protein coupled receptor 35; assay: Agonist activity at human GPR35 assessed as induction of beta-arrestin recruitment by beta-galactosidase enzyme fragment complementation method relative to zaprinast; parameters: concentration or dose not given beside the values
[9] = molecular target: T4, G-protein coupled receptor 35; assay: Agonist activity at human GPR35 assessed as induction of beta-arrestin recruitment by beta-galactosidase enzyme fragment complementation method
Cannabinoid receptor 1 [10] = molecular target: Cannabinoid receptor 1 (Rattus norvegicus, UniProt P20272); assay: Displacement of [3H]CP55,940 from CB1 receptor in rat brain cortical membranes; format: cell membranes
Cannabinoid receptor 1 (Rattus norvegicus, UniProt P20272), sequence (P20272 whole entry): as the sequence (P20272 whole entry, the tested form may be a part) above

Cannabinoid receptor 2 [11] = molecular target: T5, Cannabinoid receptor 2 (Homo sapiens, UniProt P34972); assay: Displacement of [3H]CP55,940 from human recombinant CB2 receptor expressed in HEK293 cells; format: cell-based
T5 sequence (P34972 whole entry): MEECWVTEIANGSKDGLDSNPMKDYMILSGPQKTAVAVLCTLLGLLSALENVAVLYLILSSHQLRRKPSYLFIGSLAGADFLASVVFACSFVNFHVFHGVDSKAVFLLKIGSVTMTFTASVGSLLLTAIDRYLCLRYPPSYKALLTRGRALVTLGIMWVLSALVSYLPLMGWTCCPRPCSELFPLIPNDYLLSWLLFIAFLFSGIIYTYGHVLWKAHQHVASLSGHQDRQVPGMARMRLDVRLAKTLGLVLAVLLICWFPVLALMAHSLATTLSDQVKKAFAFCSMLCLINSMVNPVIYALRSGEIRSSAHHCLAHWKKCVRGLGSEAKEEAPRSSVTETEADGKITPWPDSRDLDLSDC

Cannabinoid receptor 1 [12] = molecular target: T1, Cannabinoid receptor 1; assay: Displacement of [3H]CP55,940 from human recombinant CB1 receptor expressed in CHO-K1 cells at 10 uM; format: cell-based
Cannabinoid receptor 1 [13] = molecular target: T1, Cannabinoid receptor 1; assay: Displacement of [3H]CP55,940 from human recombinant CB1 receptor expressed in CHO-K1 cells; format: cell-based
[14] = molecular target: T2, G-protein coupled receptor 55; assay: Antagonist activity against human GPR55 expressed in CHO cells assessed as reduction in LPI-induced beta-arrestin recruitment at 10 uM by beta-galactosidase enzyme fragment complementation method; format: cell-based
[15] = molecular target: T2, G-protein coupled receptor 55; assay: Antagonist activity against human GPR55 expressed in CHO cells assessed as reduction in LPI-induced beta-arrestin recruitment by beta-galactosidase enzyme fragment complementation method; format: cell-based
[16] = molecular target: T6, N-arachidonyl glycine receptor (Homo sapiens, UniProt Q14330); assay: Antagonist activity against human GPR18 expressed in CHO cells assessed as reduction in delta9-THC-induced beta-arrestin recruitment by beta-galactosidase enzyme fragment complementation method; format: cell-based
T6 sequence (Q14330 whole entry): T3 sequence (whole entry)

Cannabinoid receptor 2 [17] = molecular target: T5, Cannabinoid receptor 2; assay: Agonist activity at human recombinant CB2 receptor expressed in CHO-K1 cell membranes assessed effect on forskolin-induced cAMP accumulation at 10 uM; format: functional, cell-based
Cannabinoid receptor 1 [18] = molecular target: T1, Cannabinoid receptor 1; assay: Agonist activity at human recombinant CB1 receptor expressed in CHO-K1 cell membranes assessed effect on forskolin-induced cAMP accumulation at 10 uM; format: functional, cell-based
[19] = molecular target: T3, N-arachidonyl glycine receptor (Homo sapiens); assay: Antagonist activity against human GPR18 expressed in CHO cells assessed as reduction in delta9-THC-induced beta-arrestin recruitment at 10 uM by beta-galactosidase enzyme fragment complementation method; format: cell-based
Cannabinoid receptor 2 [20] = molecular target: T5, Cannabinoid receptor 2; assay: Displacement of [3H]CP55,940 from human recombinant CB2 receptor expressed in HEK293 cells at 10 uM; format: cell-based
[21] = molecular target: Cannabinoid receptor 1 (Rattus norvegicus) (UniProt P20272); assay: Displacement of [3H]CP55,940 from CB1 receptor in rat brain cortical membranes at 10 uM; format: cell membranes

T1 sequence (P21554 whole entry): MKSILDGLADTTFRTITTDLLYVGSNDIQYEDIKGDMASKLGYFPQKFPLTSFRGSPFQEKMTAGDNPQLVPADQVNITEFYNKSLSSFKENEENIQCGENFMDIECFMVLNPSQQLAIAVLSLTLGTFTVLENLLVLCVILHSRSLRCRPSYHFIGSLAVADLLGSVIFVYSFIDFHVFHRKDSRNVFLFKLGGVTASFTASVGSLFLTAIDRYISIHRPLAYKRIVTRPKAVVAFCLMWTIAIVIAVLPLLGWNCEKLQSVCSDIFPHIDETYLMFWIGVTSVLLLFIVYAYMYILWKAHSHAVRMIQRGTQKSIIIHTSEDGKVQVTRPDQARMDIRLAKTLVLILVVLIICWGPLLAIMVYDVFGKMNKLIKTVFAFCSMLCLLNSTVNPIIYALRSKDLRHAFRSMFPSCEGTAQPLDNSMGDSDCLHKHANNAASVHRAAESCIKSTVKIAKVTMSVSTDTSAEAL

Row | Intrinsic activity (Cannabinoid receptor 1 [1]) | Intrinsic activity [2] | Activity [3] | Activity [4] | pKi (Cannabinoid receptor 1 [10]) | pKi (Cannabinoid receptor 2 [11]) | inhibition (Cannabinoid receptor 1 [12]) | pKi (Cannabinoid receptor 1 [13]) | inhibition [14] | pIC50 [15] | pIC50 [16] | Activity (Cannabinoid receptor 2 [17]) | inhibition [19] | inhibition (Cannabinoid receptor 2 [20]) | SMILES | inhibition [21] | further results
1 | -16% | -16% | 19% | 0% | 6.14 | 5.81 |  | 6.07 | 12% | < 5.00 | < 5.00 | inactive | 5% |  | O=C1/C(=C/c2cccc(OCc3ccc(F)cc3)c2)N=C2SCCCCN12 |  | Activity (Cannabinoid receptor 1 [18]): inactive
2 | -49% | -15% | 13% | 5% | 5.18 | < 5.00 | 29% | < 5.00 | 33% | < 5.00 | 5.00 |  | 54% | 9% | O=C1/C(=C/c2cccc(Oc3ccccc3)c2)N=C2SCCCN12 |  | 
3 | -33% | -9% | 37% | 0% | 5.37 | 5.95 | 25% | < 5.00 | 0% | < 5.00 | 5.14 | inactive |  |  | O=C1/C(=C/c2cccc(OCc3ccccc3)c2)N=C2SCCCN12 |  | 
4 | -37% | -21% | 5% | 1% | 5.44 | < 5.00 |  | 5.80 | 33% | < 5.00 | 4.85 |  |  | 21% | O=C1/C(=C/c2cccc(Oc3ccccc3)c2)N=C2SCCCCN12 |  | 
5 | -35% | -26% | 4% | 7% | 5.70 | 5.74 |  | 5.67 | 21% | < 5.00 | 5.00 | inactive | 49% |  | O=C1/C(=C/c2cccc(OCc3ccccc3)c2)N=C2SCCCCN12 |  | 
6 | -14% | -12% | 52% | 0% | 5.61 | < 5.00 |  | 5.67 | 27% | < 5.00 | < 5.00 |  | 15% | 37% | O=C1/C(=C/c2cccc(OCc3cccc(Cl)c3)c2)N=C2SCCCCN12 |  | inhibition [6]: 25%; pIC50 [7]: < 5.00; Activity [8]: -3%; pEC50 [9]: < 5.00
7 |  |  | 7% | 0% | < 5.00 | 6.01 |  | 5.64 | 43% | ≤ 5.00 | 5.19 | inactive |  |  | O=C1/C(=C/c2cccc(OCc3ccccc3Cl)c2)N=C2SCCCCN12 | 37% | 

The remaining lines, values behind:

Row | SMILES | Intrinsic activity (Cannabinoid receptor 1 [1]) | Intrinsic activity [2] | Activity [3] | Activity [4] | pKi (Cannabinoid receptor 1 [10]) | pKi (Cannabinoid receptor 2 [11]) | inhibition (Cannabinoid receptor 1 [12]) | pKi (Cannabinoid receptor 1 [13]) | inhibition [14] | pIC50 [15] | pIC50 [16] | Activity (Cannabinoid receptor 2 [17]) | inhibition [19] | inhibition (Cannabinoid receptor 2 [20]) | inhibition [21] | further results
8 | O=C1/C(=C/c2cccc(OCc3ccc(Cl)cc3)c2)N=C2SCCCN12 | -16% | -7% | 21% | 0% | 5.08 | 5.39 | 0% | < 5.00 | 0% | < 5.00 | 6.55 |  |  |  |  | pKi [5]: < 5.00; inhibition [6]: 3%; pIC50 [7]: < 5.00; Activity [8]: -1%; pEC50 [9]: < 5.00
9 | COc1ccc(/C=C2\N=C3SCCCN3C2=O)c(OC)c1 |  |  | 0% | 0% | < 5.00 | 5.59 | 42% | ≤ 5.00 |  | 5.01 | < 5.00 |  | 7% |  | 12% | inhibition [6]: 20%; pIC50 [7]: < 5.00; Activity [8]: -7%; pEC50 [9]: < 5.00
10 | O=C(Oc1cccc(/C=C2\N=C3SCCCN3C2=O)c1)c1ccccc1 |  |  | 49% | 0% | < 5.00 | ≤ 5.00 | 2% | < 5.00 | 7% | < 5.00 | 5.20 |  |  | 47% | 13% | pKi [5]: < 5.00
11 | O=C1N=C2SCCCCN2C1(c1ccccc1)c1ccccc1 | -48% | -19% | 10% | 11% | 4.67 | < 5.00 | 34% | < 5.00 | 32% | < 5.00 | < 5.00 |  | 0% | 10% |  | 
12 | O=C1/C(=C/c2cccc(OCc3ccc(Cl)cc3Cl)c2)N=C2SCCCCN12 | -44% | -21% | 16% | 0% | 5.60 | 5.78 |  | 5.50 | 33% | < 5.00 | 5.34 | inactive |  |  |  | pKi [5]: < 5.00
13 | O=C1N2CCCSC2=NC1(c1ccccc1)c1ccccc1 | -31% | -21% | 19% | 14% | 5.11 | < 5.00 | 25% | < 5.00 | 23% | < 5.00 | < 5.00 |  | 0% | 5% |  | 
14 | O=C1/C(=C/c2ccccc2)N=C2SCCCN12 |  |  | 32% | 7% | < 5.00 | < 5.00 | 40% | < 5.00 | 25% | < 5.00 | < 5.00 |  | 5% | 18% | 1% | inhibition [6]: 12%; pIC50 [7]: < 5.00; Activity [8]: -5%; pEC50 [9]: < 5.00
15 | CCOC(=O)C1CN2C(=NC(=O)C2(c2ccccc2)c2ccccc2)S1 (stereo not given) |  |  | 58% | 7% | < 5.00 | < 5.00 | 26% | < 5.00 | 41% | < 5.00 | < 5.00 |  | 0% | -5% | 0% | 
16 | O=C1N2CCCCSC2=NC1(c1ccccc1)c1ccccc1 | -16% | -15% | 54% | 15% | 5.40 | < 5.00 |  | 5.87 | 6% | < 5.00 | < 5.00 |  | 0% | 14% |  | Activity (Cannabinoid receptor 1 [18]): inactive
17 | COc1ccc(/C=C2\N=C3SCCCN3C2=O)cc1 |  |  | 37% | 0% | < 5.00 | < 5.00 | 39% | < 5.00 | 16% | < 5.00 | < 5.00 |  | 10% | 6% | 5% | 
18 | C/C(=C1/N=C2SCCCCN2C1=O)c1ccccc1 |  |  | 1% | 14% | < 5.00 | < 5.00 | 10% | < 5.00 | 25% | < 5.00 | < 5.00 |  | 4% | 17% | 3% | 
19 | O=C1/C(=C/c2cccc(OCc3ccc(Cl)cc3Cl)c2)N=C2SCCCN12 | -51% | -10% | 12% | 0% | 6.26 | 6.02 |  | 5.68 | 0% | < 5.00 | 5.59 | inactive |  |  |  | pKi [5]: < 5.00; Activity (Cannabinoid receptor 1 [18]): inactive
